Consider six compounds from paper PMC12406198, “Decadentate Acyclic Chelators for Lanthanum Radiopharmaceuticals” (Journal of Medicinal Chemistry, 2025).

The conditions of series [1]: literature value; ref footnote f; cited from earlier work.
Series [2] is described as follows: Ligand protonation constants by pH-potentiometric titration. Format: physicochemical. Particulars: sum of literature protonation constants of related ligands.
The nature of series [3]: Stability constants of La^3+ complexes by pH potentiometry. It counts as physicochemical. The settings on record: for pLa: −log[La^3+]free for [L] = 10 μM and [La^3+] = 1 μM at pH 7.4 and 25 °C; for log K LaL ^La: 1:2 L:La^3+ complex; for log K LaL ^La / log K La2L ^OH / log K La2LOH ^OH / log K LaL / pH at which dissociation of the La^3+ complex occurs (speciation diagrams) / log K LaL ^OH: I = 0.15 M NaCl, 25 °C; for pH at which dissociation of the La^3+ complex occurs (speciation diagrams): cLa3+ = cLig = 10^–3 M; for log K LaL ^OH: hydroxo-complex; for amount of La^3+ not complexed at the beginning of the titration: pH 1.7. On the procedure: The stability constants of the La^3+ complexes were determined using pH potentiometry (I = 0.15 NaCl). A significant amount of the metal ion is not complexed by the TPADAC^4– ligand at the beginning of the titration at pH 1.7 (∼20%), which allows for stability constant determination using potentiometry. In the case of TPAEN^4– the amount of free La^3+ was small (∼4%), but the stability constants could be determined by fitting the titration data using both 1:1 and 1:2 (TPAEN^4–:La^3+) stoichiometries (Figure S1, Supporting Information). The TPADAC^4– ligand also forms complexes with 1:1 and 1:2 stoichiometries (Figure S2, Supporting Information).
The thermodynamic stability of the complexes at physiologically relevant pH was assessed by calculating pLa values, defined as −log[La^3+]free for [L] = 10 μM and [La^3+] = 1 μM at pH 7.4 and 25 °C following the recommendation of Raymond. This is a result of the high stability constants (log K LaL) that characterize the formation of these complexes, as well as the relatively low basicity of these ligands. Indeed, cyclohexyl derivatives TPADAC^4– and CHXOCTAPA^4– display considerably higher basicity than the ethyl analogues, as indicated by the Σ log K i ^H (i = 1–5) values shown in Table . Similarly, DTPA and DO3A derivatives are characterized by rather high basicities, which results in relatively low pLa values.
(§1) The pH-potentiometric titrations were carried out with a Methrohm 785 DMP titrator using a Metrohm-6.0233.100 combined electrode. The titrated solutions (5.000 mL) were thermostated at 25 °C and stirred and kept under inert gas atmosphere (N2) to avoid the effect of CO2. The pH-calibration of the electrode was performed using KH-phthalate (pH = 4.005) and borax (pH = 9.177) buffers. The concentrations of the ligand stock solutions were determined by pH-potentiometric titration. The protonation constants of the TPAEN^4– (in the pH range of 2.19–12.00 a total of 213 data pairs by titrating a 2.72 mM a ligand solution) and TPADAC^4– (in the pH range of 1.88–11.85 a total of 208 data pairs by titrating a 2.32 mM ligand solution), the stability and protonation constants of the complexes formed with La^3+ and the formation constants of their dinuclear complexes were determined by pH-potentiometric titration. The metal-to-ligand concentration ratios were 1:1 and 2:1. For the 1:1 ratio a total of 240 data pairs were recorded for a H4TPAEN concentration of 2.29 mM in the pH range of 1.77–11.86, while a total of 222 data pairs were collected in the pH range 1.72–11.85 for a 2.72 mM solution of H4TPADAC. For the 2:1 ratio we collected 259 data pairs for a 2.31 mM solution of H4TPAEN in the pH range of 1.73–11.82, and 259 data pairs for a 2.71 mM concentration of H4TPADAC in the pH range of 1.70–11.85. The calculation of [H^+] from the measured pH values was performed with the use of the method proposed by Irving et al. by titrating a 0.01 M HCl solution (I = 0.15 M NaCl) with a standardized NaOH solution. The differences between the measured and calculated pH values were used to obtain the [H^+] concentrations from the pH-data obtained in the titrations. The ionic product of water was determined from the same experiment in the pH range 11.25–11.85. The protonation and stability constants were calculated from the titration data with the PSEQUAD program. The quality of the fits was assessed with the fitting parameter (FP) calculated by PSEQUAD, which is defined as 2 FP=∑i=1n(Vi,calc−Vi,meas)^2/n−k

For series [4] the following is noted: cited from earlier work.
A short description of series [5]: Ligand protonation constants by pH-potentiometric titration. It counts as physicochemical. The settings on record: I = 0.15 M NaCl, 25 °C; for Σ log K i ^H (i = 1–5): sum of the constants measured here. On the procedure: Ligand protonation constants were determined in 0.15 M NaCl using potentiometric titrations (Figures S1–S2, Supporting Information). The results are compared with those reported previously for OCTAPA^4– and CHXOCTAPA^4– in Table , while the speciation diagrams are shown in Figure S3 (Supporting Information). The first two protonation constants of these ligands, characterized by log K 1 ^H and log K 2 ^H, correspond to the protonation of amine groups, while the remaining protonation constants are ascribed to the carboxylate groups of picolinate and acetate moieties. ,
as §1

A short description of series [6]: Dissociation kinetics: transmetalation of La^3+ complexes with Cu^2+ as scavenger (UV-vis). Format: physicochemical. Particulars: for k 3 ^Cu: Cu^2+-assisted pathway; for k 3 ^Cu / k 6 ^Cu / k 2 / K Cu / k 1: 25 °C, 0.15 M NaCl; for k obs for [Cu^2+] = 1 nM / k obs for [Cu^2+] = 1 μM: calculated at pH 7.4; for k 6 ^Cu: dinuclear hydroxo-complex pathway; for k 2: diprotonated pathway; for K Cu: formation of ternary LaLCu complex; for k 1: proton-assisted dissociation of La^3+ complex. The text has this:
The inertness of metal complexes for radiopharmaceutical applications is important to ensure that the radioisotope is not released in vivo off-target. Furthermore, the detailed study of the dissociation mechanism of the complexes provides useful information for ligand design. Thus, we performed a detailed investigation of the dissociation kinetics of the [La(TPAEN)]^− and [La(TPADAC)]^− complexes using Cu^2+ as a scavenger. The reactions were studied spectrophotometrically in the approximate proton concentration range 1.1 × 10^–5–1.6 × 10^–2 M, which corresponds to a pH range of about 1.8–5.0. A large excess of Cu^2+ was used to ensure pseudo-first order conditions.
The latter may proceed through the formation of mono- or diprotonated intermediates, with associated rate constants k 1 and k 2, respectively. […] Thus, we analyzed the kinetic data using the following expression: 1 kobs=k0+k1[H^+]+k2[H^+]^2+k3[Cu^2+]+k6[Cu^2+]Kw/[H^+]/1+KCu[Cu^2+] Here, k 1, k 2, k 3 ^Cu and k 6 ^Cu are the rate constants defined above, k 0 is the rate constant characterizing the spontaneous dissociation mechanism, K w is the ionic product of water (fixed at pK w = 13.72) and K Cu is the equilibrium constant for the formation of the ternary complex (K Cu= [LaLCu]/[Cu^2+][LaL]).
The rates of the metal exchange reactions of the [La(TPAEN)]^− and [La(TPADAC)]^− complexes with Cu(II) were studied by using UV–vis spectrophotometry following the formation of corresponding Cu(II) complexes. The metal exchange reactions of [La(TPAEN)]^− and [La(TPADAC)]^− were examined by conventional spectrophotometric methods tracking the changes in absorption at 305 nm within the pH range of 1.84 to 4.94 (for [La(TPAEN)]^−). The concentration of the complexes was 0.252 mM, while the Cu(II) ion was applied in high excess (12 to 42 times) to ensure pseudo-first-order conditions. The temperature was maintained at 25 °C, and the ionic strength of the solutions was kept constant at 0.15 M NaCl. Dimethylpiperazine (DMP, 50 mM) buffer was used to maintain the pH constant (log K 2 ^H = 4.18) in the pH range of 3.40 to 4.89 (for [La(TPADAC)]^−). At lower pH, the data were supplemented by following the reactions in the range pH of 2.57 to 3.23 using chloroacetic acid (log K 2 ^H = 2.87) at the same concentration. The pseudo-first-order rate constants (k obs) were calculated by fitting the absorbance vs time data to eq : 3 At=(A0−Ae)e^−kobst+Ae where A t , A 0 and A e are the absorbances recorded at time t, at the start of the reaction and upon reaching equilibrium, respectively. The fittings were performed with the computer program Micromath Scientist, version 2.0 (Salt Lake City, UT) by using a standard least-squares procedure.

SMILES strings stand for the structures. Like-named read-outs stand apart in the source and are kept apart here.

For `O=C(O)CN(CC(=O)O)[C@@H]1CCCC[C@H]1N(CC(=O)O)CC(=O)O` (relative stereo) [CDTA^4–, 2,2′,2″,2‴-((trans-cyclohexane-1,2-diyl)bis(azanetriyl))tetraacetic acid], in series [1], the “log K 1 ^H” value is recorded as 9.36, the “log K 2 ^H” value is given as 5.95, the “log K 3 ^H” value was 3.62 and the “log K 4 ^H” value was 2.57. Besides, the “log K 5 ^H” value in series [1] is 1.49. For the same compound, in series [2], the “Σ log K i ^H (i = 1–5)” value was 22.99.

As to `O=C(O)CN1CCN(CC(=O)O)CCN(Cc2cccc(C(=O)O)n2)CCN(CC(=O)O)CC1` [DO3Apic^4–, 2,2′,2″-(10-((6-carboxypyridin-2-yl)methyl)-1,4,7,10-tetraazacyclododecane-1,4,7-triyl)triacetic acid], the pLa in series [3] (from literature constants) is 16.6. In addition, in series [4] (0.1 M KCl, ref footnote f), the “log K LaL” value is given as 21.17 and the “log K LaL ^H” value is given as 2.55.

Regarding `O=C(O)CN(CCN(CC(=O)O)CC(=O)O)CC(=O)O` [EDTA^4–, ethylenediamine-N,N,N′,N′-tetraacetic acid], in series [1], the “log K 1 ^H” value was 9.17, the “log K 2 ^H” value was 5.99, the “log K 3 ^H” value was 2.73 and the “log K 4 ^H” value is 2.01. Moreover, the “log K 5 ^H” value in series [1] was 1.38. Moreover, the “Σ log K i ^H (i = 1–5)” value in series [2] came out at 21.27.

`O=C(O)c1cccc(CN2CCOCCOCCN(Cc3cccc(C(=O)O)n3)CCOCCOCC2)n1` [MACROPA^2–, N,N’-bis[(6-carboxy-2-pyridil)methyl]-4,13-diaza-18-crown-6] gave a pLa in series [3] (from literature constants) of 15.6. Further, in series [4] (0.1 M KCl, ref footnote d), the “log K LaL” value is 14.99 and the “log K LaL ^H” value was 2.28 ^d. Besides, in series [4] (0.1 M NaCl, ref footnote e), the “log K LaL” value was 13.9.

Take `O=C(O)c1cccc(CN(Cc2cccc(C(=O)O)n2)[C@@H]2CCCC[C@H]2N(Cc2cccc(C(=O)O)n2)Cc2cccc(C(=O)O)n2)n1` [TPADAC^4–]: in series [5], the “log K 1 ^H” value is 10.79(1), the “log K 2 ^H” value is reported as 4.95(1), the “log K 3 ^H” value is recorded as 4.06(1) and the “log K 4 ^H” value is listed as 3.46(1). In addition, in series [5], the “log K 5 ^H” value is listed as 2.94(1), the “log K 6 ^H” value is given as 0.67(6) and the “Σ log K i ^H (i = 1–5)” value worked out at 26.20. Further, in series [3], the “log K LaL ^La” value is 2.85(1), the “log K La2L ^OH” value is given as 6.99(4), the “log K La2LOH ^OH” value is given as 9.40(4) and the “log K LaL” value is given as 19.55(1). Further, in series [3], the “pH at which dissociation of the La^3+ complex occurs (speciation diagrams)” value was less than 3.0, the “log K LaL ^OH” value is listed as 12.06(1) and the “amount of La^3+ not complexed at the beginning of the titration” value is on record as roughly 20%. This compound came in with a pLa in series [3] (from constants measured here) of 17.1. In series [6], the “k 3 ^Cu” value is reported as “(7.8 ± 2.2)×10^–3 M^–1 s^–1”, the “k obs for [Cu^2+] = 1 nM” value was 1.123 × 10^–8 s^–1, the “k obs for [Cu^2+] = 1 μM” value was 7.381 × 10^–6 s^–1 and the “k 6 ^Cu” value is “(1.5 ± 0.3)×10^7 M^–2 s^–1”. For the same compound, in series [6], the “k 2” value was found to be 232.3 ± 36.8 M^–2 s^–1, the “K Cu” value is reported as 74.3 ± 30.2 M^–1 and the “k 1” value is given as 0.097 ± 0.036 M^–1 s^–1.

As for `O=C(O)c1cccc(CN(CCN(Cc2cccc(C(=O)O)n2)Cc2cccc(C(=O)O)n2)Cc2cccc(C(=O)O)n2)n1` [TPAEN^4–, N,N,N′N′-tetrakis[(6-carboxypyridin-2-yl)methyl]-ethylenediamine], in series [5], the “log K 1 ^H” value was 7.87(1), the “log K 2 ^H” value is 5.14(1), the “log K 3 ^H” value is 3.89(1) and the “log K 4 ^H” value is 3.28(1). In addition, in series [5], the “log K 5 ^H” value is 2.55(1), the “log K 6 ^H” value is given as 0.89(8) and the “Σ log K i ^H (i = 1–5)” value was found to be 22.73. In addition, in series [3], the “log K LaL ^La” value is 2.31(13), the “log K La2L ^OH” value is recorded as 6.80(10), the “log K La2LOH ^OH” value is given as 9.57(10) and the “log K LaL” value was 19.16(8). Also, in series [3], the “pH at which dissociation of the La^3+ complex occurs (speciation diagrams)” value is given as less than 2.5, the “log K LaL ^OH” value was 12.62(9) and the “amount of La^3+ not complexed at the beginning of the titration” value was roughly 4%. In series [3] (from constants measured here), this compound registered a pLa of 19.5. Moreover, in series [6], the “k 3 ^Cu” value was 0.74 ± 0.05 M^–1 s^–1, the “k obs for [Cu^2+] = 1 nM” value is 4.34 × 10^–7 s^–1, the “k obs for [Cu^2+] = 1 μM” value is on record as 3.45 × 10^–4 s^–1 and the “k 6 ^Cu” value is recorded as “(7.2 ± 0.5)×10^8 M^–2 s^–1”. Moreover, in series [6], the “k 2” value is on record as 110.93 ± 10.42 M^–2 s^–1, the “K Cu” value came to 42.0 ± 4.5 M^–1 and the “k 1” value was found to be 2.24 ± 0.13 M^–1 s^–1.
